Patent US11377444B2, “Pyridopyrimidine compounds acting as mTORC 1/2 dual inhibitors” (MEDSHINE DISCOVERY INC., priority 2017, dated 2022)
Like-named read-outs stand apart in the source and are kept apart here.

Experiments:
[1] = biological target: T1, mTOR kinase (mTORC1 and mTORC2 kinase complex) (Homo sapiens, UniProt P42345); experiment: In vitro evaluation of mTOR kinase inhibitory activity (DiscoverX ligand-bead competition binding, qPCR readout)
T1 construct: purchased DiscoverX; host or cells: HEK-293
Description: Experimental Embodiment 1: In Vitro Evaluation of mTOR Kinase Inhibitory Activity This experiment was performed by DiscoverX. All materials and methods were obtained from DiscoverX.
Kinase activity analysis.
1. Labeled mTOR kinase was stably expressed in HEK-293 cells.
2. Streptavidin magnetic beads were treated with biotinylated small molecule ligands at room temperature for 30 minutes to produce affinity resin for kinase analysis;
3. Ligand beads were blocked with excess biotin and washed with buffer (1% bovine serum albumin, […]) to remove unbound ligand and non-specifically bound ligand;
4. The assembly of kinase and ligand and affinity beads, and the binding reaction between the compound and the three were performed in buffer (20% blocking buffer, 0.17x phosphate buffer, 0.05% Tween […]);
5. The test compounds were dissolved in dimethyl sulfoxide;
6. All test compounds were dissolved in DMSO, and then directly diluted […]
7. The solution was placed in a 384-well polypropylene plate, wherein the volume of each well was 0.02 mL;
8. The plate was shaked for an hour at room temperature;
9. The plate was washed with buffer (1× PBS, 0.05% Tween 20);
10. The affinity beads were resuspended in buffer (1× PBS, 0.05% Tween […] non-biotin affinity ligand) and incubated at room temperature for 30 minutes;
11. The kinase concentration in the eluate was deteced by qPCR.

[2] = test system: HT-29 cell; experiment: Cell proliferation inhibitory activity (Cell-Titer-Glo), HT-29; type: cell-based; conditions: 3 days incubation
Text: (§1) Experimental Embodiment 2: Evaluation of Cell Proliferation Inhibitory Activity
(§2) Experiment objective: To detect cell proliferation inhibitory activity of the tested compounds.
(§3) Experimental principle: The luciferase in the Cell-Titer-Glo reagent produces oxyluciferin using luciferin, oxygen and ATP as reaction substrates, and releases energy in the form of light. Since the reaction of luciferase requires ATP, the total amount of light generated by the reaction is proportional to the total amount of ATP that reflects cell viability.
(§4) Cell lines: MCF-7 cell line […], HT-29 cell line (ATCC-HTB-38), OE21 (ECACC-96062201), NCI-N87 cell line (ATCC-CRL-5822)
(§5) Cell culture medium: (RPMI 1640 culture medium (Invitrogen #1868546; 10% serum Invitrogen #1804958; L-glutamine 1×, Invitrogen #1830863; dual antibiotic Hyclone #J170012))
(§6) Cell Titer-Glo® Luminescent Cell Viability Assay Kit (Promega #G7573)
(§7) The cells were inoculated in a 384- or 96-well plate with a density of 1000 cells per well and 25 μL per well according to the instructions of the cell inoculating plate. The edge wells were not inoculated with cells, and was supplemented with […].
(§8) (i) The mother solution of the compound was 10 mM, and diluted with DMSO to an initial concentration of 4 mM. The compound was added to the compound mother solution, 9 μL per well.
(§9) (ii) The compound was diluted with ECHO liquid-handling workstation. Each well of the cell plate was added with 125 nL compound. Each well of the cell wells in 2nd column and 23rd column was added with 125 nL DMSO, and each of the PBS wells in 1st column and 24th column was added with 125 nL DMSO.
(§10) (iii) Each well of the cell plate was supplemented with 25 μL culture medium, the final volume in each well of the cell plate was 50 μL, […] 3 times dilution, 10 concentrations, each concentration was duplicated in left and right wells, the final DMSO concentration was 0.25%.
(§11) 2.3. After addition of the compound, centrifugation was performed at 1000 rpm for 1 min, and the cell plate was placed in a 37° C., 5% CO2 incubator for 3 days.
(§12) The cell plate was taken out from the incubator and equilibrated at room temperature for 30 minutes. 25 μL Cell-Titer-Glo reagent was added to each well, shaken for one minute to mix thoroughly, centrifuged at 1000 rpm for 1 minute. After 10 minutes, the plate was read on PerkinElmer Envision with a […] reading time was set at 0.2 second.

[3] = test system: MCF-7 cell; experiment: Cell proliferation inhibitory activity (Cell-Titer-Glo), MCF-7; type: cell-based; conditions: Homo sapiens, MCF7, 72 h; 3 days incubation
Text: as §1, §2, §3, §4, §5, §6, §7, §8, §9, §10, §11, §12

[4] = test system: N87 cell; experiment: Cell proliferation inhibitory activity (Cell-Titer-Glo), N87; type: cell-based; conditions: 72 h; 3 days incubation
Text: as §1, §2, §3, §4, §5, §6, §7, §8, §9, §10, §11, §12

[5] = Pharmacokinetic evaluation in plasma after IV and PO administration; type: in vivo; conditions: female Balb/c mice; for AUC(0-inf) / AUC(0-t) / C0 / clearance / half-life / MRT inf / MRT last / Vd / Cmax / Tmax / bioavailability: mouse; for MRT inf: read-out: MRT0-inf; for MRT last: read-out: MRT0-last; for Vd: read-out: Vdss
Description: Experimental Embodiment 3: Pharmacokinetic Evaluation
The test compound was mixed with […] (Cremophor EL), vortexed and sonicated to prepare a 1 mg/mL near-clear solution, which was filtered with a microporous filter membrane for future use. Female Balb/c mice of 18 to 20 grams were selected and the solution of the test compound was administered intravenously at a dose of 1 or 2 mg/kg. The test compound was mixed with an aqueous solution of 1% Tween 80, 9% polyethylene glycol 400, and 90% water, vortexed and sonicated to prepare 1 mg/mL near-clear solution, which was filtered with a microporous filter membrane for future use.
Female Balb/c mice of 18 to 20 grams were selected, and the solution of the test compound was orally administered at a dose of 2 or 10 mg/kg. The whole blood was collected at a certain time, and prepared into plasma. The drug concentration was analyzed by LC-MS/MS, and the pharmacokinetic parameters were calculated using Phoenix WinNonlin software (Pharsight Corporation, USA).

CNC(=O)c1cccc(-c2ccc3c(N4CCOCC4C)nc(N4CCOC5(CCOC5)C4)nc3n2)c1 (single isomer, unassigned) [Embodiment 32-1]
Kd [1]: 0.00079 µM | IC50 ([2]; Homo sapiens, HT-29, 72 h): 0.744 µM

CNC(=O)c1cccc(-c2ccc3c(N4CCOCC4C)nc(N4CCOC5(CCOC5)C4)nc3n2)c1 (single isomer, unassigned) [Embodiment 32-2]
Kd [1]: 0.0015 µM | IC50 [2]: 1.41 µM

CNC(=O)c1cccc(-c2ccc3c(N4CCOCC4C)nc(N4CCOC5(CC(O)C5)C4)nc3n2)c1 (single isomer, unassigned) [Embodiment 33-1]
Kd [1]: 0.00078 µM | IC50 ([2]; Homo sapiens, HT-29, 72 h): 1.97 µM

CNC(=O)c1cccc(-c2ccc3c(N4CCOCC4C)nc(N4CCOC5(CC(O)C5)C4)nc3n2)c1 (single isomer, unassigned) [Embodiment 33-2]
Kd [1]: 0.00038 µM | IC50 [2]: 1.25 µM

CNC(=O)c1cccc(-c2ccc3c(N4CCOCC4C)nc(N4CCOC5(CC(OC)C5)C4)nc3n2)c1 (single isomer, unassigned) [Embodiment 34-1]
Kd [1]: 0.001 µM | IC50 ([2]; Homo sapiens, HT-29, 72 h): 1.05 µM

CNC(=O)c1cccc(-c2ccc3c(N4CCOCC4C)nc(N4CCOC5(CC(OC)C5)C4)nc3n2)c1 (single isomer, unassigned) [Embodiment 34-2]
Kd [1]: 0.00073 µM | IC50 [2]: 0.833 µM

CNC(=O)c1cccc(-c2ccc3c(N4CCOCC4C)nc(N4CC5(CCOC5)OCC4C)nc3n2)c1 (single isomer, unassigned) [Embodiment 48-2]
Kd [1]: 0.0007 µM | IC50 [3]: 0.176 µM

CC1COCCN1c1nc(N2CCOC3(CCOC3)C2)nc2nc(-c3cccc(C(N)=O)c3)ccc12 (single isomer, unassigned) [Embodiment 50-2]
Kd [1]: 0.0007 µM | IC50 [3]: 0.636 µM

CNC(=O)c1cccc(-c2ccc3c(N4C5CCC4COC5)nc(N4CCOC5(CC5)C4)nc3n2)c1 [Embodiment 9]
Kd [1]: 0.00034 µM | IC50 [3]: 0.262 µM

CNC(=O)c1cccc(-c2ccc3c(N4CCOCC4C)nc(N4CCC5(CC4)OCCO5)nc3n2)c1 (stereo not drawn) [Embodiment 12]
Kd [1]: 0.00075 µM | IC50 [3]: 0.251 µM

CNC(=O)c1cccc(-c2ccc3c(N4CCOC[C@@H]4C)nc(N4CCOC5(CCOCC5)C4)nc3n2)c1 [Embodiment 13]
Kd [1]: 0.00064 µM | IC50 [3]: 0.255 µM

C[C@H]1COCCN1c1nc(N2CCOC3(CC3)C2)nc2nc(-c3cccc(C(=O)NC4CC4)c3)ccc12 [Embodiment 21]
Kd [1]: 0.00047 µM | IC50 [3]: 0.19 µM

CNC(=O)c1cccc(-c2ccc3c(N4CCOC[C@@H]4C)nc(N4CCOC5(CCCC5)C4)nc3n2)c1 [Embodiment 24]
Kd [1]: 0.00041 µM | IC50 [3]: 0.206 µM

CNC(=O)c1cccc(-c2ccc3c(N4CC5CCC(C4)O5)nc(N4CCOC5(CC5)C4)nc3n2)c1 [Embodiment 26]
Kd [1]: 0.001 µM | IC50 [3]: 0.431 µM

C[C@H]1COC2(CCC2)CN1c1nc(N2CCOC[C@@H]2C)c2ccc(-c3cccc(C(N)=O)c3)nc2n1 [Embodiment 35]
Kd [1]: 0.0004 µM | IC50 [3]: 0.105 µM | IC50 [4]: 0.044 µM | AUCExtra ([5]; IV 1 mg/kg): 0.246% | AUMCExtra ([5]; IV 1 mg/kg): 1.59% | Tlast ([5]; IV 1 mg/kg): 12.0 h | AUCExtra ([5]; PO 2 mg/kg): 1.84% | AUMCExtra ([5]; PO 2 mg/kg): 8.59% | Tlast ([5]; PO 2 mg/kg): 8.00 h | AUC(0-inf) ([5]; IV 1 mg/kg): 7.4 µM·h | AUC(0-t) ([5]; IV 1 mg/kg): 7.38 µM·h | C0 ([5]; IV 1 mg/kg): 2.49 µM | clearance ([5]; IV 1 mg/kg): 5.07 mL/min/kg | half-life ([5]; IV 1 mg/kg): 1.38 h | MRT inf ([5]; IV 1 mg/kg): 2.16 h | MRT last ([5]; IV 1 mg/kg): 2.13 h | Vd ([5]; IV 1 mg/kg): 0.657 L/kg | AUC(0-inf) ([5]; PO 2 mg/kg): 8.75 µM·h | AUC(0-t) ([5]; PO 2 mg/kg): 8.59 µM·h | Cmax ([5]; PO 2 mg/kg): 3.49 µM | Tmax ([5]; PO 2 mg/kg): 0.25 h | bioavailability ([5]; PO 2 mg/kg): 56.1% | half-life ([5]; PO 2 mg/kg): 1.33 h | MRT inf ([5]; PO 2 mg/kg): 2.13 h | MRT last ([5]; PO 2 mg/kg): 1.98 h

C[C@H]1COCCN1c1nc(N2CCOCC3(CCC3)C2)nc2nc(-c3cccc(C(N)=O)c3)ccc12 [Embodiment 36]
IC50 [3]: 0.36 µM

CNC(=O)c1cccc(-c2ccc3c(N4CCOC[C@@H]4C)nc(N4CCOCC5(CCC5)C4)nc3n2)c1 [Embodiment 37]
IC50 [3]: 0.252 µM

C[C@H]1COCCN1c1nc(N2CCOCC3(CC3)C2)nc2nc(-c3cccc(C(N)=O)c3)ccc12 [Embodiment 38]
IC50 [3]: 0.449 µM

CNC(=O)c1cccc(-c2ccc3c(N4CCOC[C@@H]4C)nc(N4CCOCC5(CC5)C4)nc3n2)c1 [Embodiment 39]
IC50 [3]: 0.268 µM

C[C@H]1COCCN1c1nc(N2CCOC3(COC3)C2)nc2nc(-c3cccc(C(N)=O)c3)ccc12 [Embodiment 52]
Kd [1]: 0.0008 µM | IC50 [3]: 0.586 µM

COc1ccc(-c2ccc3c(N4CCOC[C@@H]4C)nc(N4CCOC5(CC5)C4)nc3n2)cc1CO [Embodiment 54]
IC50 [4]: 0.119 µM

CNC(=O)c1cc(-c2ccc3c(N4CCOC[C@@H]4C)nc(N4CCOC5(CC5)C4)nc3n2)ccc1OC [Embodiment 55]
IC50 [4]: 0.12 µM | AUCExtra ([5]; IV 1 mg/kg): 0.0522% | AUMCExtra ([5]; IV 1 mg/kg): 0.540% | Tlast ([5]; IV 1 mg/kg): 12 h | AUCExtra ([5]; PO 2 mg/kg): 0.0673% | AUMCExtra ([5]; PO 2 mg/kg): 0.493% | Tlast ([5]; PO 2 mg/kg): 12.0 h | AUC(0-inf) ([5]; IV 1 mg/kg): 9.47 µM·h | AUC(0-t) ([5]; IV 1 mg/kg): 9.46 µM·h | C0 ([5]; IV 1 mg/kg): 9.7 µM | clearance ([5]; IV 1 mg/kg): 3.49 mL/min/kg | half-life ([5]; IV 1 mg/kg): 1.01 h | MRT inf ([5]; IV 1 mg/kg): 1.3 h | MRT last ([5]; IV 1 mg/kg): 1.29 h | Vd ([5]; IV 1 mg/kg): 0.272 L/kg | AUC(0-inf) ([5]; PO 2 mg/kg): 16.3 µM·h | AUC(0-t) ([5]; PO 2 mg/kg): 16.3 µM·h | Cmax ([5]; PO 2 mg/kg): 7.73 µM | Tmax ([5]; PO 2 mg/kg): 0.5 h | bioavailability ([5]; PO 2 mg/kg): 86.1% | half-life ([5]; PO 2 mg/kg): 1.15 h | MRT inf ([5]; PO 2 mg/kg): 1.86 h | MRT last ([5]; PO 2 mg/kg): 1.86 h

COc1ccc(-c2ccc3c(N4CCOC[C@@H]4C)nc(N4CCOC5(CC5)C4)nc3n2)cc1C(N)=O [Embodiment 56]
IC50 [4]: 0.167 µM
